Test results published in paper PMC7309225, “Synthesis, Biodistribution, and Radiation Dosimetry of a Novel mGluR5 Radioligand: ^18F-AZD9272” (ACS Chemical Neuroscience, 2020).
“And” between values parts separate entries of the source, which are not always exact repeats. Identical values can stand only once.

What was measured:
[1] = Radiometabolite analysis of plasma by radio-HPLC during PET; assay type: in vivo, cynomolgus monkey
Procedure: An automated blood sampling system (ABSS) was used to measure the continuous radioactivity for the first 3 min after the radioligand injection. Then, blood sampling was performed manually for the measurement of metabolism and radioactivity at 5, 15, 30, 60, 90, and 120 min after the injection. A reversed-phase radio-HPLC method was used to determine the amount of unchanged ^18F-AZD9272 and its radioactive metabolites in NHP plasma.[35]

[2] = Whole body PET and radiation dosimetry (OLINDA/EXM 1.1); assay type: in vivo, cynomolgus monkey; conditions: for Estimated radiation dose: human estimate, adult male model
Procedure: Two female cynomolgus monkeys (NHP3: 7420 g and NHP4: 6360 g) were used in this study. Anesthesia was induced by intramuscular injection of ketamine hydrochloride (approximately 10 mg/kg) at AFL and maintained by intravenous infusion of ketamine (4 mg/kg/h) and xylazine (0.4 mg/kg/h) with a pump. The body of the NHP was immobilized using a vacuum pad. Body temperature was maintained by using a Bair Hugger system (model 505, Arizant Healthcare, MN) and monitored with an esophageal thermometer. Heart rate, blood pressure, respiratory rate, and oxygen saturation were continuously monitored throughout the experiments. Fluid balance was maintained by continuous infusion of saline.
Whole-body PET scans were conducted using a GE Discovery PET/CT 710 system (GE Healthcare, Waukesha, WI). One low-dose CT scan was performed before intravenous administration of ^18F-AZD9272 for attenuation correction. Then five series of PET acquisitions, each covering five axial fields of view (AFOV), were conducted. The five PET series consisted of two 20 s × 5 AFOV, three 40 s × 5 AFOV, three 80 s × 5 AFOV, three 160 s × 5 AFOV, and eight 240 s × 5 AFOV. The total duration of the whole-body PET measurement was around 4 h. PET images were reconstructed with a 3D ordered-subset expectation maximization (OSEM) algorithm with three iterations and 18 subsets, including the time-of-flight information (VUE Point FX) and the point spread function correction (Sharp IR). A 2D Gaussian filter with 5.5 mm cutoff was used.
ROIs were drawn for the brain, heart, liver, lung, kidney, gall bladder, bone (lumbar vertebrae), urinary bladder, stomach, small intestine, spleen, and pancreas with the help of the CT images for anatomic landmarks. The time–activity curve was expressed as the percentage of the injected dose (%ID) calculated as follows: decay-corrected radioactivity (Bq/cc) × ROI volume (cc)/injected dose (Bq) × 100.
Estimates of the absorbed radiation dose in humans were calculated with OLINDA/EXM 1.1 (Organ Level INternal Dose Assessment Code) software, using the adult male (70 kg) reference model.[36] The fractional uptake in NHP organs was assumed to be equal to the uptake in human organs.

[3] = system: monoamine oxidase-B (MAO-B); set-up: method as in PMID 23541825; conditions: NHP brain; cited from earlier work

Compound: N#Cc1cc(F)cc(-c2nc(-c3ccc([18F])cn3)no2)c1 [^18F-AZD9272, 3-fluoro-5-(3-(5-[^18F]fluoropyridin-2-yl)-1,2,4-oxadiazol-5-yl)benzonitrile]
- Parent compound in plasma ([1]; 5 min after injection): approximately 95%
- Percentage of parent radioligand in plasma ([1]; 120 min after injection, individual animals (n = 2)): 59% and 64%
- Estimated radiation dose ([2]; LLI wall, NHP3): 26.8 μSv/MBq
- Estimated radiation dose ([2]; LLI wall, NHP4): 27.9 μSv/MBq
- Estimated radiation dose ([2]; LLI wall, mean): 27.4 μSv/MBq
- Whole body organ uptake (PET) ([2]; NHP whole body): High uptakes were seen in liver and small intestine, followed by brain and kidney
- Estimated radiation dose ([2]; ULI wall, NHP3): 65.7 μSv/MBq
- Estimated radiation dose ([2]; ULI wall, NHP4): 69.4 μSv/MBq
- Estimated radiation dose ([2]; ULI wall, mean): 67.6 μSv/MBq
- Estimated radiation dose ([2]; adrenals, NHP3): 14.6 μSv/MBq
- Estimated radiation dose ([2]; adrenals, NHP4): 14.1 μSv/MBq
- Estimated radiation dose ([2]; adrenals, mean): 14.4 μSv/MBq
- Estimated radiation dose ([2]; brain, NHP3): 13.0 μSv/MBq
- Estimated radiation dose ([2]; brain, NHP4): 17.4 μSv/MBq
- Estimated radiation dose ([2]; brain, mean): 15.2 μSv/MBq
- Estimated radiation dose ([2]; breasts, NHP3): 8.0 μSv/MBq
- Estimated radiation dose ([2]; breasts, NHP4): 7.9 μSv/MBq
- Estimated radiation dose ([2]; breasts, mean): 7.9 μSv/MBq
- Estimated radiation dose ([2]; effective dose, NHP3): 17.4 μSv/MBq
- Estimated radiation dose ([2]; effective dose, NHP4): 17.4 μSv/MBq
- Estimated radiation dose ([2]; effective dose, mean): 17.4 μSv/MBq
- Estimated radiation dose ([2]; gallbladder wall, NHP3): 21.3 μSv/MBq
- Estimated radiation dose ([2]; gallbladder wall, NHP4): 21.1 μSv/MBq
- Estimated radiation dose ([2]; gallbladder wall, mean): 21.2 μSv/MBq
- Estimated radiation dose ([2]; heart wall, NHP3): 17.5 μSv/MBq
- Estimated radiation dose ([2]; heart wall, NHP4): 19.0 μSv/MBq
- Estimated radiation dose ([2]; heart wall, mean): 18.3 μSv/MBq
- Human radiation dose estimate, upper large intestine (ULI) wall ([2]; highest-dose organ): around 0.068 mSv/MBq
- Radioactivity that can be injected to humans ([2]; if the limit is 10 mSv for the total radiation exposure): 570 MBq
- Estimated radiation dose ([2]; kidneys, NHP3): 42.3 μSv/MBq
- Estimated radiation dose ([2]; kidneys, NHP4): 29.6 μSv/MBq
- Estimated radiation dose ([2]; kidneys, mean): 36.0 μSv/MBq
- Estimated radiation dose ([2]; liver, NHP3): 47.0 μSv/MBq
- Estimated radiation dose ([2]; liver, NHP4): 45.7 μSv/MBq
- Estimated radiation dose ([2]; liver, mean): 46.4 μSv/MBq
- Estimated radiation dose ([2]; lungs, NHP3): 12.7 μSv/MBq
- Estimated radiation dose ([2]; lungs, NHP4): 11.8 μSv/MBq
- Estimated radiation dose ([2]; lungs, mean): 12.3 μSv/MBq
- Human radiation dose estimate, most organs ([2]; most organs): 0.01–0.02 mSv/MBq
- Estimated radiation dose ([2]; muscle, NHP3): 10.1 μSv/MBq
- Estimated radiation dose ([2]; muscle, NHP4): 10.0 μSv/MBq
- Estimated radiation dose ([2]; muscle, mean): 10.1 μSv/MBq
- Estimated radiation dose ([2]; osteogenic cells, NHP3): 14.5 μSv/MBq
- Estimated radiation dose ([2]; osteogenic cells, NHP4): 14.5 μSv/MBq
- Estimated radiation dose ([2]; osteogenic cells, mean): 14.5 μSv/MBq
- Estimated radiation dose ([2]; ovaries, NHP3): 18.2 μSv/MBq
- Estimated radiation dose ([2]; ovaries, NHP4): 18.6 μSv/MBq
- Estimated radiation dose ([2]; ovaries, mean): 18.4 μSv/MBq
- Estimated radiation dose ([2]; pancreas, NHP3): 16.4 μSv/MBq
- Estimated radiation dose ([2]; pancreas, NHP4): 15.4 μSv/MBq
- Estimated radiation dose ([2]; pancreas, mean): 15.9 μSv/MBq
- Estimated radiation dose ([2]; red marrow, NHP3): 10.7 μSv/MBq
- Estimated radiation dose ([2]; red marrow, NHP4): 10.7 μSv/MBq
- Estimated radiation dose ([2]; red marrow, mean): 10.7 μSv/MBq
- Estimated radiation dose ([2]; skin, NHP3): 7.4 μSv/MBq
- Estimated radiation dose ([2]; skin, NHP4): 7.4 μSv/MBq
- Estimated radiation dose ([2]; skin, mean): 7.4 μSv/MBq
- Estimated radiation dose ([2]; small intestine, NHP3): 58.9 μSv/MBq
- Estimated radiation dose ([2]; small intestine, NHP4): 62.1 μSv/MBq
- Estimated radiation dose ([2]; small intestine, mean): 60.5 μSv/MBq
- Estimated radiation dose ([2]; spleen, NHP3): 9.6 μSv/MBq
- Estimated radiation dose ([2]; spleen, NHP4): 8.4 μSv/MBq
- Estimated radiation dose ([2]; spleen, mean): 9.0 μSv/MBq
- Estimated radiation dose ([2]; stomach wall, NHP3): 13.2 μSv/MBq
- Estimated radiation dose ([2]; stomach wall, NHP4): 13.1 μSv/MBq
- Estimated radiation dose ([2]; stomach wall, mean): 13.2 μSv/MBq
- Estimated radiation dose ([2]; testes, NHP3): 8.7 μSv/MBq
- Estimated radiation dose ([2]; testes, NHP4): 8.6 μSv/MBq
- Estimated radiation dose ([2]; testes, mean): 8.7 μSv/MBq
- Estimated radiation dose ([2]; thymus, NHP3): 9.7 μSv/MBq
- Estimated radiation dose ([2]; thymus, NHP4): 9.6 μSv/MBq
- Estimated radiation dose ([2]; thymus, mean): 9.6 μSv/MBq
- Estimated radiation dose ([2]; thyroid, NHP3): 9.1 μSv/MBq
- Estimated radiation dose ([2]; thyroid, NHP4): 9.1 μSv/MBq
- Estimated radiation dose ([2]; thyroid, mean): 9.1 μSv/MBq
- Estimated radiation dose ([2]; total body, NHP3): 12.2 μSv/MBq
- Estimated radiation dose ([2]; total body, NHP4): 12.1 μSv/MBq
- Estimated radiation dose ([2]; total body, mean): 12.2 μSv/MBq
- Estimated radiation dose ([2]; urinary bladder wall, NHP3): 11.3 μSv/MBq
- Estimated radiation dose ([2]; urinary bladder wall, NHP4): 11.4 μSv/MBq
- Estimated radiation dose ([2]; urinary bladder wall, mean): 11.4 μSv/MBq
- Estimated radiation dose ([2]; uterus, NHP3): 16.1 μSv/MBq
- Estimated radiation dose ([2]; uterus, NHP4): 16.3 μSv/MBq
- Estimated radiation dose ([2]; uterus, mean): 16.2 μSv/MBq
- Specific binding inhibited by administration of a MAO-B-selective ligand [3]: approximately 90%
